Experiments:
[1] = target: T1, Human GLP-1 receptor (Homo sapiens, UniProt P43220); test: In vitro Human GLP-1 R agonist activity (cyclic AMP determination) in CHO/human GLP1R cells; format: cell-based
T1 construct: The full-length cDNA was cloned in pcDNA3.1(+); expressed in transfected cells

[2] = target: T2, human glucagon receptor (Homo sapiens, UniProt P47871); test: In vitro human glucagon antagonist activity (inhibition of cAMP production) in CHO/human glucagon R cells; format: cell-based; conditions: with saturated concentration of glucagon peptide
T2 construct: The full-length cDNA was cloned in pcDNA3.1 (Invitrogen); expressed in transfected cells
T2 sequence (P47871 26-477): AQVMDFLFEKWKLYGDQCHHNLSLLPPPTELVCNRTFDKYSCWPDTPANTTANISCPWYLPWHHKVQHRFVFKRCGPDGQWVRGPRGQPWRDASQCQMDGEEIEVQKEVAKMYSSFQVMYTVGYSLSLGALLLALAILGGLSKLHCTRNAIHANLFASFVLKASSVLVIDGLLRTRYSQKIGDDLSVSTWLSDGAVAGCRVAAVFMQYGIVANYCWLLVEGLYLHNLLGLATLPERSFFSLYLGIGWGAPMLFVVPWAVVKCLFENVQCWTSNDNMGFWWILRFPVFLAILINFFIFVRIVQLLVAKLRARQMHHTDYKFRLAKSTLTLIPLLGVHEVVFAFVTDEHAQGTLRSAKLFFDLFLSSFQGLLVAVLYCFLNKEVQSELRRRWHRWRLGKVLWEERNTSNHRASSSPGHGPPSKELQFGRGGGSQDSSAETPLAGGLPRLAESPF

[3] = target: DPP IV (Homo sapiens, UniProt P27487); test: Stability against DPP IV enzyme; format: in vitro ADME; conditions: 37° C.; for % degradation of peptidomimetics in 24 h when incubated with DPP-IV enzyme: 2 μM peptidomimetic; for half-life at 2 μM: DPP IV enzyme, pH 7.8, 2 μM peptidomimetic, read-out: half-life (t1/2) when incubated with DPP-IV enzyme
Chain of DPP IV (P27487 whole entry, species assumed): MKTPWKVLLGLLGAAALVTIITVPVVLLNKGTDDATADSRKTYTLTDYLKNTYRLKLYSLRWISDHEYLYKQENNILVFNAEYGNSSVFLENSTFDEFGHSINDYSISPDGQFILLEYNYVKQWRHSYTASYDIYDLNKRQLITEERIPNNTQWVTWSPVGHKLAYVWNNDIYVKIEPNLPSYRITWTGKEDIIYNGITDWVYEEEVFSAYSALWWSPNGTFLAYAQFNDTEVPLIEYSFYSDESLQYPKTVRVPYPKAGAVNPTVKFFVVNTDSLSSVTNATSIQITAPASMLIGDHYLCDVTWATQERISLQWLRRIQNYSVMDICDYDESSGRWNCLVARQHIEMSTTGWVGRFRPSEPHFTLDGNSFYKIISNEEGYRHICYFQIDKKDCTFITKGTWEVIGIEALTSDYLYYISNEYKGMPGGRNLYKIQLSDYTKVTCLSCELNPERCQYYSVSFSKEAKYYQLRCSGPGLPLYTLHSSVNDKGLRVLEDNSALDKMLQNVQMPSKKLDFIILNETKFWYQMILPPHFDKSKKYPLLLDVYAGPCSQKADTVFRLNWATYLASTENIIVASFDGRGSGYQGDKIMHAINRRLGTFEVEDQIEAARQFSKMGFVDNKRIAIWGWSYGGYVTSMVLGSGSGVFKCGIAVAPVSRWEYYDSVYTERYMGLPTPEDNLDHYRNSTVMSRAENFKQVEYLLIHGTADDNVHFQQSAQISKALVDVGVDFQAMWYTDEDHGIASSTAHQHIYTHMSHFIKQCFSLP
Procedure: (§1) Reactions were terminated by the addition of TFA/H2O (15 mL, 10% (v/v)). […] The column was equilibrated with TFA/H20, at a flow rate of 1 mL/min.

[4] = Stability in human plasma; format: in vitro ADME; conditions: 2 μM peptidomimetic, pooled human plasma, 37° C.; for half-life at 2 μM: pH 7.8, read-out: half-life (t1/2) when incubated with human plasma
Procedure: as §1

[5] = Stability in simulated gastric fluid; format: in vitro ADME; conditions: 2 μM peptidomimetic, simulated gastric fluid pH 1.5, 37° C.; for half-life at 2 μM: read-out: half-life (t1/2) when incubated with simulated gastric fluid
Procedure: as §1

[6] = Stability in simulated intestinal fluid; format: in vitro ADME; conditions: 2 μM peptidomimetic, simulated intestinal fluid pH 7.5, 37° C.; for half-life at 2 μM: read-out: half-life (t1/2) when incubated with simulated intestinal fluid
Procedure: as §1

[7] = Stability in liver microsomes; format: in vitro ADME; conditions: 2 μM peptidomimetic, human liver microsomes, 37° C.
Procedure: as §1

T1 sequence (P43220 24-463): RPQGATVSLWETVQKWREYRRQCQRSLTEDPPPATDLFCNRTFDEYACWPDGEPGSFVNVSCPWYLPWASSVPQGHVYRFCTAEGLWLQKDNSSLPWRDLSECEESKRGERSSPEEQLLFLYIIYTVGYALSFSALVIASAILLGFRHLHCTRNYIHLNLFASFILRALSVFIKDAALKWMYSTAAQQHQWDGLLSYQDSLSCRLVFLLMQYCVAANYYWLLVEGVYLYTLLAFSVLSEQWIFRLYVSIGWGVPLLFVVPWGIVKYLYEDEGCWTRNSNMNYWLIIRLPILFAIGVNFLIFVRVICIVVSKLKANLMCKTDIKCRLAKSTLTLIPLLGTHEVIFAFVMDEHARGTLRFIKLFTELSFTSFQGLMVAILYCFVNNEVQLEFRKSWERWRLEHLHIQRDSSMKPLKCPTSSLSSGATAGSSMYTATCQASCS

Row | SMILES | Human GLP-1 R activity (cAMP release), % activity with respect to control ([1]; 1 nM test compound) [%] | Human GLP-1 R activity (cAMP release), % activity with respect to control ([1]; 10 nM test compound) [%] | Human GLP-1 R activity (cAMP release), % activity with respect to control ([1]; 100 nM test compound) [%] | Human GLP-1 R activity (cAMP release), % activity with respect to control ([1]; 1 μM test compound) [%] | Human GLP-1 R activity (cAMP release), % activity with respect to control ([1]; 10 μM test compound) [%] | Human Glucagon receptor antagonistic activity shown as inhibition of cAMP production of Glucagon peptide ([2]; 1 nM test compound) [pmol/ml/μg prt] | Human Glucagon receptor antagonistic activity shown as inhibition of cAMP production of Glucagon peptide ([2]; 10 nM test compound) [pmol/ml/μg prt] | Human Glucagon receptor antagonistic activity shown as inhibition of cAMP production of Glucagon peptide ([2]; 100 nM test compound) [pmol/ml/μg prt] | Human Glucagon receptor antagonistic activity shown as inhibition of cAMP production of Glucagon peptide ([2]; 1 μM test compound) [pmol/ml/μg prt] | Human Glucagon receptor antagonistic activity shown as inhibition of cAMP production of Glucagon peptide ([2]; 10 μM test compound) [pmol/ml/μg prt] | % degradation of peptidomimetics in 24 h when incubated with DPP-IV enzyme [3] [%] | half-life at 2 μM [3] [h] | % degradation of peptidomimetics in 24 h when incubated with human plasma [4] [%] | half-life at 2 μM [4] [h] | % degradation of peptidomimetics in 24 h when incubated with simulated gastric fluid [5] [%] | half-life at 2 μM [5] [h] | % degradation of peptidomimetics in 24 h when incubated with simulated intestinal fluid [6] [%] | half-life at 2 μM [6] [h] | half-life (t1/2) when incubated with liver microsomes [7] | % degradation of peptidomimetics in 24 h when incubated with liver microsomes [7] [%] | also measured
1 | CCc1cc(OC)ccc1-c1ccc(CC(NC(=S)[C@H](CC(=O)O)NC(=O)[C@H](CO)NC(=O)[C@@H](NC(=O)C(C)(Cc2ccccc2F)NC(=O)[C@@H](NC(=O)CNC(=O)C(CCC#N)NC(=O)C(C)(C)NC(=O)[C@@H](N)Cc2c[nH]cn2)[C@H](C)O)[C@H](C)O)C(=S)NC(CCCc2ccccc2)C(N)=O)cc1 (single isomer, unassigned) [compound 178] | 39 ± 0.12 | 80 ± 0.15 | 86 ± 0.18 | 95 ± 0.03 | 98 ± 0.09 | 0 | 0 | 0 | 0 | 0 | 00 | > 24 | 00 | > 24 | 00 | > 24 | 00 | > 24 | (5) h | 35 | –
2 | CCc1cc(OC)ccc1-c1ccc(CC(CNC(CCCc2ccccc2)C(N)=O)NC[C@H](CC(=O)O)NC(=O)[C@H](CO)NC(=O)[C@@H](NC(=O)C(C)(Cc2ccccc2F)NC(=O)[C@@H](NC(=O)CNC(=O)[C@H](CCC(N)=O)NC(=O)C(C)(C)NC(=O)[C@H](Cc2c[nH]cn2)NC(=O)OC)[C@@H](C)O)[C@@H](C)O)cc1 (single isomer, unassigned) [compound 194] | 38 ± 0.11 | 77 ± 0.16 | 85 ± 0.11 | 94 ± 0.08 | 97 ± 0.05 | 18 ± 0.12 | 16 ± 0.11 | 12 ± 0.13 | 8 ± 0.12 | 6 ± 0.18 | 00 | > 24 | 00 | > 24 | 43 | 4 | 00 | > 24 | – | 84 | half-life at 2 μM ([7]; pH 7.8, read-out: half-life (t1/2) when incubated with liver microsomes): 2 h
3 | CCc1cc(OC)ccc1-c1ccc(CC(CNC(CCCc2ccccc2F)C(N)=O)NC[C@H](CC(=O)O)NC(=O)[C@H](CO)NC(=O)[C@@H](NC(=O)C(C)(Cc2ccccc2F)NC(=O)[C@@H](NC(=O)CNC(=O)C(CCC#N)NC(=O)C(C)(C)NC(=O)[C@@H](N)Cc2c[nH]cn2)[C@H](C)O)[C@H](C)O)cc1 (single isomer, unassigned) [compound 204] | 96 ± 0.02 | 99 ± 0.46 | 99 ± 0.41 | 99 ± 0.66 | 99 ± 0.03 | 6 ± 0.05 | 5 ± 0.04 | 2 ± 0.16 | 0 | 0 | 00 | > 24 | 00 | > 24 | 00 | > 24 | 00 | > 24 | (5) h | 32 | –
4 | CCc1cc(OC)ccc1-c1ccc(CC(NC(=O)[C@H](CC(=O)O)NC(=O)[C@H](CO)NC(=O)[C@@H](NC(=O)C(C)(Cc2ccccc2F)NC(=O)[C@@H](NC(=O)CNC(=O)C(CCC#N)NC(=O)C(C)(C)NC(=O)[C@H](Cc2c[nH]cn2)NC(C)=O)[C@@H](C)O)[C@@H](C)O)C(=O)NC(CCCc2ccccc2)C(N)=O)cc1 (single isomer, unassigned) [compound 205] | 96 ± 0.09 | 99 ± 0.07 | 99 ± 0.04 | 99 ± 0.01 | 99 ± 0.08 | 4 ± 0.16 | 2 ± 0.11 | 0 | 0 | 0 | 00 | > 24 | 00 | > 24 | 00 | > 24 | 00 | > 24 | (5) h | 33 | –

From patent US8883963B2 (Cadila Healthcare Limited, priority 2007, dated 2014)
